Data from ChEMBL document CHEMBL4507273 (2021).

Legend:
[1] = target: Mitogen-activated protein kinase 10 (Homo sapiens) (UniProt P53779); conditions: Compound concentration 1000.0 nM
[2] = target: Serine/threonine-protein kinase 35 (Homo sapiens) (UniProt Q8TDR2); conditions: Compound concentration 1000.0 nM
[3] = target: Myosin light chain kinase family member 4 (Homo sapiens) (UniProt Q86YV6); conditions: Compound concentration 1000.0 nM
[4] = target: Ribosomal protein S6 kinase alpha-5 (Homo sapiens) (UniProt O75582); conditions: Compound concentration 1000.0 nM
[5] = target: Serine/threonine-protein kinase TBK1 (Homo sapiens) (UniProt Q9UHD2); conditions: Compound concentration 1000.0 nM
[6] = target: Ephrin type-A receptor 6 (Homo sapiens) (UniProt Q9UF33); conditions: Compound concentration 1000.0 nM
[7] = tested on: Epidermal growth factor receptor (Homo sapiens), P00533 [UNDEFINED MUTATION]; conditions: Compound concentration 1000.0 nM
Histamine H1 receptor = Histamine H1 receptor (Homo sapiens, UniProt P35367); conditions: Compound concentration 10.0 uM
[8] = target: Tyrosine-protein kinase Fer (Homo sapiens) (UniProt P16591); conditions: Compound concentration 1000.0 nM
[9] = target: Misshapen-like kinase 1 (Homo sapiens) (UniProt Q8N4C8); conditions: Compound concentration 1000.0 nM
[10] = target: T1, 5-hydroxytryptamine receptor 2C (Homo sapiens, UniProt P28335); test: GPCRScan assay: inhibition of 5-HT2C; design: radioligand conc. used [nm] 1.0 – 2.5, parental cells HEK T
T1 sequence (P28335 whole entry): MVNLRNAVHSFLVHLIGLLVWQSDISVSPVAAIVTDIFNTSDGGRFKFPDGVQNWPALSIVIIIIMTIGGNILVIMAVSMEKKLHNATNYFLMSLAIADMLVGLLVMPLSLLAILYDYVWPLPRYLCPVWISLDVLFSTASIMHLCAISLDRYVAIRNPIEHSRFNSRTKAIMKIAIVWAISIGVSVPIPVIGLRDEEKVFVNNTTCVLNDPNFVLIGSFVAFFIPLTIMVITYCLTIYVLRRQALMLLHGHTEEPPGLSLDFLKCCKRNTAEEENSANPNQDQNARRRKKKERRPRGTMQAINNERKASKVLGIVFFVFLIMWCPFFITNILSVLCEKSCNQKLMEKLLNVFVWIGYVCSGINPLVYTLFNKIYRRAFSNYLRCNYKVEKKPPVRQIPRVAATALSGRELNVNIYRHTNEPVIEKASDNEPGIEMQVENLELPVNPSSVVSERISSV

[11] = target: Tyrosine-protein kinase receptor Tie-1 (Homo sapiens) (UniProt P35590); conditions: Compound concentration 1000.0 nM
[12] = tested on: Tyrosine-protein kinase ABL1 (Homo sapiens), P00519 [T315I]; conditions: Compound concentration 1000.0 nM
[13] = target: Protein kinase C eta type (Homo sapiens) (UniProt P24723); conditions: Compound concentration 1000.0 nM
[14] = target: Rho-associated protein kinase 2 (Homo sapiens) (UniProt O75116); conditions: Compound concentration 1000.0 nM
[15] = target: Cyclin-dependent kinase 4 (Homo sapiens) (UniProt P11802); conditions: Compound concentration 1000.0 nM
[16] = target: Serine/threonine-protein kinase Chk2 (Homo sapiens) (UniProt O96017); conditions: Compound concentration 1000.0 nM
[17] = tested on: Hepatocyte growth factor receptor (Homo sapiens), P08581 [Y1235D]; conditions: Compound concentration 1000.0 nM
[18] = target: Mitogen-activated protein kinase kinase kinase 3 (Homo sapiens) (UniProt Q99759); conditions: Compound concentration 1000.0 nM
[19] = target: Calcium/calmodulin-dependent protein kinase type II subunit delta (Homo sapiens) (UniProt Q13557); conditions: Compound concentration 1000.0 nM
[20] = target: Serine/threonine-protein kinase 16 (Homo sapiens) (UniProt O75716); conditions: Compound concentration 1000.0 nM
[21] = target: Muscarinic acetylcholine receptor M4 (Homo sapiens) (UniProt P08173); conditions: Compound concentration 10.0 uM
[22] = target: Fibroblast growth factor receptor 1 (Homo sapiens) (UniProt P11362); conditions: Compound concentration 1000.0 nM
[23] = target: Mitogen-activated protein kinase 1 (Homo sapiens) (UniProt P28482); conditions: Compound concentration 1000.0 nM
[24] = target: Ribosomal protein S6 kinase beta-1 (Homo sapiens) (UniProt P23443); conditions: Compound concentration 1000.0 nM
[25] = target: Dual specificity testis-specific protein kinase 1 (Homo sapiens) (UniProt Q15569); conditions: Compound concentration 1000.0 nM
[26] = target: Serine/threonine-protein kinase PAK 6 (Homo sapiens) (UniProt Q9NQU5); conditions: Compound concentration 1000.0 nM
[27] = target: Tyrosine-protein kinase HCK (Homo sapiens) (UniProt P08631); conditions: Compound concentration 1000.0 nM
[28] = target: T2, Muscarinic acetylcholine receptor M5 (Homo sapiens, UniProt P08912); test: GPCRScan assay: inhibition of M5; design: radioligand conc. used [nm] 0.2 – 1.0, parental cells stable CHO
T2 sequence (P08912 whole entry): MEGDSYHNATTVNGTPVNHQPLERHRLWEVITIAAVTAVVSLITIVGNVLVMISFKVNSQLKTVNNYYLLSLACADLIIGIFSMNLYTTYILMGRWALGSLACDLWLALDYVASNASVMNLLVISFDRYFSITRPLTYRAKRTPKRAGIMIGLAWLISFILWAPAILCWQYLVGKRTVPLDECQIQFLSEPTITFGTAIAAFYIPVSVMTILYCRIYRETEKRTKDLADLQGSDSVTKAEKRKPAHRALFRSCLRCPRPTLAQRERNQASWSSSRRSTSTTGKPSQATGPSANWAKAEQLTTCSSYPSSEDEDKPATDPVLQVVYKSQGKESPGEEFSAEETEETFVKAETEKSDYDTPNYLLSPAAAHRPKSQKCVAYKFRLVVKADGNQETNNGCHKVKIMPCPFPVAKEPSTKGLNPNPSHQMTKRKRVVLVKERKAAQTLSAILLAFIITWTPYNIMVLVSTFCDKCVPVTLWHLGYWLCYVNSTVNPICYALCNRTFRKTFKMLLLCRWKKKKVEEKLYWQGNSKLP

D(3) dopamine receptor = D(3) dopamine receptor (Homo sapiens, UniProt P35462); conditions: Compound concentration 10.0 uM
[29] = target: Mitogen-activated protein kinase kinase kinase kinase 3 (Homo sapiens) (UniProt Q8IVH8); conditions: Compound concentration 1000.0 nM
[30] = target: 5-hydroxytryptamine receptor 6 (Homo sapiens) (UniProt P50406); conditions: Compound concentration 10.0 uM
Sequence of 5-hydroxytryptamine receptor 6 (Homo sapiens) (P50406 whole entry): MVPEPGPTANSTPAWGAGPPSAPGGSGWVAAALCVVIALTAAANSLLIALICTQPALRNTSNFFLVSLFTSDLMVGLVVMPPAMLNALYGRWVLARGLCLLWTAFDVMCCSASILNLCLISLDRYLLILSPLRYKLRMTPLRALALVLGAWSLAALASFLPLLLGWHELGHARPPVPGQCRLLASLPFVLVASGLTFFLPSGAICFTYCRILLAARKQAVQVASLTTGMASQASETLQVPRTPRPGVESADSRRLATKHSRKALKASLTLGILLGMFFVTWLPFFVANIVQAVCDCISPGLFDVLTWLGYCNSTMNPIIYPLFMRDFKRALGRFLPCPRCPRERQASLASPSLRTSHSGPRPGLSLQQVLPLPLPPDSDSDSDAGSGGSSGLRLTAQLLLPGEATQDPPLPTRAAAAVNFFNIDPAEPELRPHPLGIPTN

Sequence of Mitogen-activated protein kinase 1 (Homo sapiens) (P28482 whole entry): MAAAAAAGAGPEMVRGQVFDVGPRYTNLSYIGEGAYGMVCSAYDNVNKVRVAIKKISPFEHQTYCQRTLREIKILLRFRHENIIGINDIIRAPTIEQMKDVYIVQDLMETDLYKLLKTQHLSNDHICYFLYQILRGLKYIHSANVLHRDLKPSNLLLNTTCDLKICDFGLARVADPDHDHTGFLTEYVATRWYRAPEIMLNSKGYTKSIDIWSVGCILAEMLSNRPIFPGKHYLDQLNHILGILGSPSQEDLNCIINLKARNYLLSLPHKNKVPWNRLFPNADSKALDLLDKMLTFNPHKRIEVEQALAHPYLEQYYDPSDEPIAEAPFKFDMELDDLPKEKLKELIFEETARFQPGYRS
Sequence of Tyrosine-protein kinase Fer (Homo sapiens) (P16591 whole entry, looked up): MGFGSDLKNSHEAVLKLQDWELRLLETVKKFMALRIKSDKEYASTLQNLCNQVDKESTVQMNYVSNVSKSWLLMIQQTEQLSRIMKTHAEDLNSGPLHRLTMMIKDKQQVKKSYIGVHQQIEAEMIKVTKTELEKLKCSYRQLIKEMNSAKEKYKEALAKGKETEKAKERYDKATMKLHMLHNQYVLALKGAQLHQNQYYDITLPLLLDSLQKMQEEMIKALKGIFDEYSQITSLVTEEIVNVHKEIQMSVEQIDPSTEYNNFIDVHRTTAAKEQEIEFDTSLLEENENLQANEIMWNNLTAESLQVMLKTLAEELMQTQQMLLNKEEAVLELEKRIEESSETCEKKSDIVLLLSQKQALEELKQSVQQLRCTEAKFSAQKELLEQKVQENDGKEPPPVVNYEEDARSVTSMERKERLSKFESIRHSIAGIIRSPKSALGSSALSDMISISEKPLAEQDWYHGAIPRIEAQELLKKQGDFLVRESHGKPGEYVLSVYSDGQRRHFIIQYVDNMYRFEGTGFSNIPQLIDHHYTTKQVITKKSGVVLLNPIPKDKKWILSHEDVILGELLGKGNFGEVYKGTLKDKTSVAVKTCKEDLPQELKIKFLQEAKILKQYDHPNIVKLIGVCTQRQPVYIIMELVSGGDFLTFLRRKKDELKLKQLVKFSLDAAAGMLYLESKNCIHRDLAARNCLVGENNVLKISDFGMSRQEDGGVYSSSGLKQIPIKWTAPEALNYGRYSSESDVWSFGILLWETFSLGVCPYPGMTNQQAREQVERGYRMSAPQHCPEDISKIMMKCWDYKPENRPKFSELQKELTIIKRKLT
Sequence of D(3) dopamine receptor (P35462 whole entry): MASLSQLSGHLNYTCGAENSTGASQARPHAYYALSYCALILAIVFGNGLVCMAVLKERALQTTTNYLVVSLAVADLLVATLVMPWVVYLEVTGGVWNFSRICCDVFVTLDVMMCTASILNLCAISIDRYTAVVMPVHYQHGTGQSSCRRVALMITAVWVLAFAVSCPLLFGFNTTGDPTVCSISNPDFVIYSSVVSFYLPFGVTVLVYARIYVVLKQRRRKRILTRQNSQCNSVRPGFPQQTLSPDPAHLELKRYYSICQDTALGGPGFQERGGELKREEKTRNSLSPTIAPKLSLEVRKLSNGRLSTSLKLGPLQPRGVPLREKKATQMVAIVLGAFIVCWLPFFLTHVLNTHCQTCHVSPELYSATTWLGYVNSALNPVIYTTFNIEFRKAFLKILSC
Sequence of Dual specificity testis-specific protein kinase 1 (Homo sapiens) (Q15569 whole entry, looked up): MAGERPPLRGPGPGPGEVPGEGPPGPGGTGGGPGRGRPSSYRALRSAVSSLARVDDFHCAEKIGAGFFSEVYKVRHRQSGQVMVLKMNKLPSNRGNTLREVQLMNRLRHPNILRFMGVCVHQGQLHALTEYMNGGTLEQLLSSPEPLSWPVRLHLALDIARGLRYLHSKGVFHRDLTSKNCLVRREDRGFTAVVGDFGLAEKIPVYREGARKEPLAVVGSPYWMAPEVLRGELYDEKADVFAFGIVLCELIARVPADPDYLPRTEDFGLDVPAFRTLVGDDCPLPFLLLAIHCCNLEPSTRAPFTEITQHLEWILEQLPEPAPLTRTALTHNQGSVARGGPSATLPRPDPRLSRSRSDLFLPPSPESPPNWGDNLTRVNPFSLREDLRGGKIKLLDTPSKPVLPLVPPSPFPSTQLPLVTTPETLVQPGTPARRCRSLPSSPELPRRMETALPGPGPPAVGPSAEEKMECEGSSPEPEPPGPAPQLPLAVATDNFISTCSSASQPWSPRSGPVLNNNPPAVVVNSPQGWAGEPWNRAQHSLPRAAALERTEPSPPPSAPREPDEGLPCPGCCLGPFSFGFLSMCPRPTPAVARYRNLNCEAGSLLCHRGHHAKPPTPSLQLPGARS
Sequence of Histamine H1 receptor (P35367 whole entry): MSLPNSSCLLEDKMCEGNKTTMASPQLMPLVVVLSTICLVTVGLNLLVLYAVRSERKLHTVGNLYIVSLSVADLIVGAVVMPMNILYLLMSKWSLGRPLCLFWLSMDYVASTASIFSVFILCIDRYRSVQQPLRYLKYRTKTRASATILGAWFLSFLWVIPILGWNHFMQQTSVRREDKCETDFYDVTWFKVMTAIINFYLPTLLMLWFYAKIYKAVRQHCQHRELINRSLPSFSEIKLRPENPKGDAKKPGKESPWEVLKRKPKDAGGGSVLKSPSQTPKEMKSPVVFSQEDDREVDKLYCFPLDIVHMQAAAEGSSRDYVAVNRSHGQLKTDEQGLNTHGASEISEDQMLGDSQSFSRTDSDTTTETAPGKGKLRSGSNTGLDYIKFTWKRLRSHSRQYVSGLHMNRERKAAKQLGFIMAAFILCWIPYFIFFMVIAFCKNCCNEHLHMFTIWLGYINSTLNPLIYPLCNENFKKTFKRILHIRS
Sequence of Calcium/calmodulin-dependent protein kinase type II subunit delta (Homo sapiens) (Q13557 whole entry): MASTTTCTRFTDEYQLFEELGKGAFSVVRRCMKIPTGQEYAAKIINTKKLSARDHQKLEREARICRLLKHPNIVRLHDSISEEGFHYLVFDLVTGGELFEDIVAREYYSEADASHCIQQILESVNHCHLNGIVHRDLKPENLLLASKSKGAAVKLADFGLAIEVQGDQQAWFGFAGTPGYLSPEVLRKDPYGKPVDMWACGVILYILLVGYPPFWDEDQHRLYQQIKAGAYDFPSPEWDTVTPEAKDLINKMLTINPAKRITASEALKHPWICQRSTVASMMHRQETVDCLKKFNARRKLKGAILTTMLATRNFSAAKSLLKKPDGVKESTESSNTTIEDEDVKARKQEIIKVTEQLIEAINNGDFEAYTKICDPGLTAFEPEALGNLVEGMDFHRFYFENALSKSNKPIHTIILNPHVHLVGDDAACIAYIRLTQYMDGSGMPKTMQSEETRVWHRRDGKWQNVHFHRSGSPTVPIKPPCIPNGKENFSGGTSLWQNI
Sequence of Serine/threonine-protein kinase TBK1 (Homo sapiens) (Q9UHD2 whole entry): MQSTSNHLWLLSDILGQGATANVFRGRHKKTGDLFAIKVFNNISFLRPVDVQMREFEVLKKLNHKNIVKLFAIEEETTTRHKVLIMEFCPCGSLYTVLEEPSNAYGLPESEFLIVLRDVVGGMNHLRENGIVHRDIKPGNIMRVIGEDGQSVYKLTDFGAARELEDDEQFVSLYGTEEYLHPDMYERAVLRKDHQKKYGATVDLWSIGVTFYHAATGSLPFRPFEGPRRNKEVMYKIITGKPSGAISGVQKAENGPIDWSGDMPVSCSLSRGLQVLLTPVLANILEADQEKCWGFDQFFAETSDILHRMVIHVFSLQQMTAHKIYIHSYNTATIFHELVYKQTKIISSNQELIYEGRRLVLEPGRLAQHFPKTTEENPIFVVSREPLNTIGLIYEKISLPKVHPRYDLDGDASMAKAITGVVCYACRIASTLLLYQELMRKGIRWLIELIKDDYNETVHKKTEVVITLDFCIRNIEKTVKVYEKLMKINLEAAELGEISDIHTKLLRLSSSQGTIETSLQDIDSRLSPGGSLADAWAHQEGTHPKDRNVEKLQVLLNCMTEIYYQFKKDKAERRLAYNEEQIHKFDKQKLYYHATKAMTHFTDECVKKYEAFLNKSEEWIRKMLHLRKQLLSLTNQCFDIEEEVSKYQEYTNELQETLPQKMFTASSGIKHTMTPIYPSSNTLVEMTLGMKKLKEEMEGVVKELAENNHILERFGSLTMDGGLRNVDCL
Sequence of Cyclin-dependent kinase 4 (Homo sapiens) (P11802 whole entry): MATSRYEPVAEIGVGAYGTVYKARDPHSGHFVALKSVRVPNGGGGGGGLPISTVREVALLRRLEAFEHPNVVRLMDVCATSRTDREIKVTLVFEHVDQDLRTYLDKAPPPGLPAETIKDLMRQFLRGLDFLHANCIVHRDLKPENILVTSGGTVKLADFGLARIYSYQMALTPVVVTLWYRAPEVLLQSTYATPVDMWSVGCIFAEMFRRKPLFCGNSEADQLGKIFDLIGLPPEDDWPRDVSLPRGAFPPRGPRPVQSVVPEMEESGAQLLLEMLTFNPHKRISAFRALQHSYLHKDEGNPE
Sequence of Serine/threonine-protein kinase 16 (Homo sapiens) (O75716 whole entry): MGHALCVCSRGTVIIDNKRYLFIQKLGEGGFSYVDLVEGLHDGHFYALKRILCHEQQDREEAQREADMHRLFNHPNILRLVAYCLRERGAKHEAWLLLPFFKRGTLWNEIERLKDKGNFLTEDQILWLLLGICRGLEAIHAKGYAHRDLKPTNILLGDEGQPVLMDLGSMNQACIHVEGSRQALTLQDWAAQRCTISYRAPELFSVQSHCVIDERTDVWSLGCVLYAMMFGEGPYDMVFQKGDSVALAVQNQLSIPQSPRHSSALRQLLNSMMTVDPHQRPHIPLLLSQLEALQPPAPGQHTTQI

Question: `CNCc1ccccc1-c1csc([C@@H](C)Nc2nc(C)nc3cc(OC)c(OC)cc23)c1` [BAY-293] was tested. Which residual activity [1] did it give?
Answer: 71%

Question: And the residual activity [2]?
Answer: 91%

Question: And the residual activity [3]?
Answer: 99%

Question: And the residual activity [4]?
Answer: 100%

Question: What about the residual activity [5] of the same compound?
Answer: 100%

Question: And the residual activity [6]?
Answer: 96%

Question: What about the residual activity [7] of the same compound?
Answer: 63%

Question: What about the inhibition (Histamine H1 receptor) of the same compound?
Answer: 49.4%

Question: And the residual activity [8]?
Answer: 100%

Question: What about the residual activity [9] of the same compound?
Answer: 57%

Question: What about the Ki ([10]; read-out: Ki) of the same compound?
Answer: 3400 nM

Question: What about the Ki ([10]; read-out: pKi (converted)) of the same compound?
Answer: 2880 nM

Question: What about the residual activity [11] of the same compound?
Answer: 100%

Question: What about the residual activity [12] of the same compound?
Answer: 83%

Question: What about the residual activity [13] of the same compound?
Answer: 100%

Question: And the residual activity [14]?
Answer: 93%

Question: What about the residual activity [15] of the same compound?
Answer: 90%

Question: What about the residual activity [16] of the same compound?
Answer: 76%

Question: And the residual activity [17]?
Answer: 100%

Question: What about the residual activity [18] of the same compound?
Answer: 83%

Question: And the residual activity [19]?
Answer: 99%

Question: What about the residual activity [20] of the same compound?
Answer: 97%

Question: What about the inhibition [21] of the same compound?
Answer: 43.1%

Question: And the residual activity [22]?
Answer: 100%

Question: And the residual activity [23]?
Answer: 78%

Question: What about the residual activity [24] of the same compound?
Answer: 86%

Question: What about the residual activity [25] of the same compound?
Answer: 83%

Question: What about the residual activity [26] of the same compound?
Answer: 100%

Question: What about the residual activity [27] of the same compound?
Answer: 97%

Question: And the Ki ([28]; read-out: Ki)?
Answer: 956 nM

Question: And the Ki ([28]; read-out: pKi (converted))?
Answer: 944 nM

Question: What about the inhibition (D(3) dopamine receptor) of the same compound?
Answer: 56.8%

Question: And the residual activity [29]?
Answer: 99%

Question: What about the inhibition [30] of the same compound?
Answer: -1.41%

Question: What does the source list for `CNCc1ccccc1-c1csc([C@H](C)Nc2nc(C)nc3cc(OC)c(OC)cc23)c1` [BAY-294]?
Answer: residual activity [1]: 74%; residual activity [2]: 100%; residual activity [3]: 100%; residual activity [4]: 100%; residual activity [5]: 100%; residual activity [6]: 100%; residual activity [7]: 81%; inhibition (Histamine H1 receptor): 56.7%; residual activity [8]: 100%; residual activity [9]: 88%; Ki ([10]; read-out: Ki): 706 nM; Ki ([10]; read-out: pKi (converted)): 692 nM; residual activity [11]: 100%; residual activity [12]: 87%; residual activity [13]: 100%; residual activity [14]: 100%; residual activity [15]: 96%; residual activity [16]: 87%; residual activity [17]: 98%; residual activity [18]: 87%; residual activity [19]: 97%; residual activity [20]: 100%; inhibition [21]: 59.4%; residual activity [22]: 100%; residual activity [23]: 100%; residual activity [24]: 83%; residual activity [25]: 100%; residual activity [26]: 100%; residual activity [27]: 98%; Ki ([28]; read-out: Ki): 524 nM; inhibition (D(3) dopamine receptor): 64.8%; residual activity [29]: 100%; inhibition [30]: 20.2%
